Reference: article PMC5511785 (Journal of pharmaceutical sciences, 2017)
Read-outs that look alike come from different tables or passages of the source.

How the values were obtained:
GFP-OATP1B3 [1] = assay type: cell-based, human
OATP1B1 [2] = molecular target: T1, OATP1B1 (Homo sapiens, UniProt Q9Y6L6); experiment: cell-based; conditions: [3H]-E217βG 1 μM, 2 min, HEK293-OATP1B1
T1 sequence (Q9Y6L6 1-691): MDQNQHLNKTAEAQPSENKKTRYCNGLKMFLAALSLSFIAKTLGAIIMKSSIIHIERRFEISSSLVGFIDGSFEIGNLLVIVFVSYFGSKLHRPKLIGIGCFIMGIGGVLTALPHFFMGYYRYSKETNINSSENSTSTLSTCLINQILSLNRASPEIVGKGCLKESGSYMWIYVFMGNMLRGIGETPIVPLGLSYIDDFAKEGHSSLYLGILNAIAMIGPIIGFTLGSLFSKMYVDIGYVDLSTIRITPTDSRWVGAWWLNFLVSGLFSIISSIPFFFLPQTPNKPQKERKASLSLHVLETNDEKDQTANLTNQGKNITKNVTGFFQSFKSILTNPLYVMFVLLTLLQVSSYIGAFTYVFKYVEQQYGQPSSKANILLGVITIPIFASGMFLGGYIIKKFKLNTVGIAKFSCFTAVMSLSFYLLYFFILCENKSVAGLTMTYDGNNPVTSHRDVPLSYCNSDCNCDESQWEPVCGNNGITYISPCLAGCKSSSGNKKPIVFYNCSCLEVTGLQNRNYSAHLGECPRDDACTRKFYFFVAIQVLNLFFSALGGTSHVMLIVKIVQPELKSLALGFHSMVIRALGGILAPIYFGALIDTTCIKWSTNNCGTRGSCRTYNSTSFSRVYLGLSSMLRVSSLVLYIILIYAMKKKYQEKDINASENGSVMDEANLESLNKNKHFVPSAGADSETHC

OATP1B1 [3] = experiment: Immunoblot of total OATP1B1 protein in HEK293-OATP1B1 cells; assay type: cell-based, human; conditions: 10 μM, 1 h
[4] = co-administration of dasatinib with simvastatin; cited from earlier work
OATP1B1 [5] = molecular target: T1, OATP1B1
[6] = cited from earlier work
OATP1B3 [7] = experiment: Immunoblot of total OATP1B3 protein in HEK293-OATP1B3 cells; assay type: cell-based, human; conditions: 10 μM, 1 h
[8] = system: HEK293-OATP1B1 and -1B3 cells; conditions: 1 h treatment; rifampicin up to 25 μM, dasatinib up to 20 μM
OATP1B1 [9] = conditions: co-incubation with 10 μM; cited from earlier work
[10] = cited from earlier work; remark: listed apart in the source
GFP-OATP1B1 [11] = assay type: cell-based, human
GFP-OATP1B3 [12] = molecular target: T2, GFP-OATP1B3 (Homo sapiens, UniProt Q9NPD5); experiment: [3H]-E217βG accumulation in HEK293-GFP-OATP1B3 cells
T2 sequence (Q9NPD5 1-702): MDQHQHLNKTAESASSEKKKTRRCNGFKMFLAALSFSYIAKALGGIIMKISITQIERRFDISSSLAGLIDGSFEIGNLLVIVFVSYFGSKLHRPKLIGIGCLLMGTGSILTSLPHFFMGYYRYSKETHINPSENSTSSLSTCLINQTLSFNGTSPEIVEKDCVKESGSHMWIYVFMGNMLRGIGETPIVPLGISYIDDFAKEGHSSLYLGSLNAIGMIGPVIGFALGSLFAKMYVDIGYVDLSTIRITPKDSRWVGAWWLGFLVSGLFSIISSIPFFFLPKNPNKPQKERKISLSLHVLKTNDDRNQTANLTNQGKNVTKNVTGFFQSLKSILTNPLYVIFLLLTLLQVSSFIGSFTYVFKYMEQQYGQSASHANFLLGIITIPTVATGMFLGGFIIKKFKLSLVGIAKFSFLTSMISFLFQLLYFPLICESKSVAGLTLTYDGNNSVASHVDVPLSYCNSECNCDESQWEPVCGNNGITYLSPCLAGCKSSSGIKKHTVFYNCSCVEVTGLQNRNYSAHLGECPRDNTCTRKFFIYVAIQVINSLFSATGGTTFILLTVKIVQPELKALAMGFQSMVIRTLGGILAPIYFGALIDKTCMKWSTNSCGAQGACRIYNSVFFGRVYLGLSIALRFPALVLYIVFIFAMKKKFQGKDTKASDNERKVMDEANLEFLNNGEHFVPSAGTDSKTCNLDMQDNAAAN

GFP-OATP1B1 [13] = molecular target: T3, GFP-OATP1B1 (Homo sapiens, UniProt Q9Y6L6); experiment: [3H]-E217βG accumulation in HEK293-GFP-OATP1B1 cells
T3 sequence (Q9Y6L6 1-691): T1 sequence (Q9Y6L6 1-691)

OATP1B3 [14] = molecular target: T4, OATP1B3 (Homo sapiens, UniProt Q9NPD5)
T4 sequence (Q9NPD5 1-702): T2 sequence (Q9NPD5 1-702)

OATP1B3 [15] = molecular target: T4, OATP1B3; experiment: cell-based; conditions: [3H]-E217βG 1 μM, 2 min, HEK293-OATP1B3
OATP1B1 [16] = molecular target: T1, OATP1B1; experiment: OATP1B1-mediated [3H]-pitavastatin accumulation; assay type: cell-based; conditions: 10 μM, 1 h pre-incubation
OATP1B1 [17] = molecular target: T1, OATP1B1; experiment: OATP1B1-mediated [3H]-E1S accumulation; assay type: cell-based; conditions: 1 μM, 30 min or 1 h
OATP1B1 [18] = conditions: 1–25 μM; cited from earlier work
[19] = Estimated maximum unbound inhibitor concentration at the inlet to the liver; design: species or system human; conditions: Supplemental Table S2
[20] = 20 μM, up to at least 1 h (data not shown)
[21] = IC50, co-incubation, without pretreatment
[22] = IC50, pre+co-incubation (1 h pretreatment)
[23] = substrate kinetics, vehicle control pretreatment, mean ± SD, n=3
[24] = unlabeled E217βG 1–30 μM, 0.5 and 1 h

## Cc1nc(Nc2ncc(C(=O)Nc3c(C)cccc3Cl)s2)cc(N2CCN(CCO)CC2)n1 [Dasatinib]
GFP-OATP1B3 [1]; [20]
  Plasma membrane localization of GFP-OATP1B3: did not cause an obvious change
OATP1B1 [2]; [21]
  IC50: 4810 ± 1700 nM
OATP1B1 [2]; [22]
  IC50: 2330 ± 860 nM
OATP1B1 [3]
  Total protein level of OATP1B1 vs vehicle control: similar
[4]
  Increase of AUC of simvastatin: 20%
  Increase of AUC of simvastatin acid: 27%
OATP1B1 [5]; 5 - 20 μM for 0.5 and 1 h
  Effect of pretreatment on OATP1B1-mediated [3H]-E217βG accumulation: significantly decreased
[6]
  pKa1: 6.8
  pKa2: 10.8
[6]; neutral species octanol:buffer partition coefficient
  Log PO:W: 1.8
OATP1B3 [7]
  Total protein level of OATP1B3 vs vehicle control: similar
[8]
  LDH cytotoxicity: negligible toxicity
OATP1B1 [9]
  Decrease of OATP1B1-mediated [3H]-E217βG transport: ~ 70%
[10]; first-order absorption rate constant
  ka: 6 h⁻¹
[10]; fraction available for absorption from dosage form, meta-analysis
  fa: 0.781
[10]; from allometric scaling
  Vss: 4.2 L/kg
[10]; observed value (CV% 106.5)
  CLPO: 449.4 L/h
[10]; observed value
  CLR: 0.4 L/h
GFP-OATP1B1 [11]; [20]
  Plasma membrane localization of GFP-OATP1B1: did not cause an obvious change

## C[C@]12CC[C@@H]3c4ccc(O)cc4CC[C@H]3[C@@H]1CC[C@@H]2O[C@@H]1O[C@H](C(=O)O)[C@@H](O)[C@H](O)[C@H]1O [E217βG, estradiol 17β-D-glucuronide]
GFP-OATP1B3 [12]; 1 μM, 2 min, HEK293-GFP-OATP1B3 (data not shown)
  [3H]-E217βG accumulation vs HEK293-Mock cells: ~ 34 fold
OATP1B1 [5]; [23]
  Vmax of E217βG transport mediated by OATP1B1: 55.2 ± 1.6 pmol/mg protein/min
OATP1B1 [5]; [24]
  Effect of pretreatment on OATP1B1-mediated transport of [3H]-E217βG: only slightly decreases or has no effect
GFP-OATP1B1 [13]; 1 μM, 2 min, HEK293-GFP-OATP1B1 (data not shown)
  [3H]-E217βG accumulation vs HEK293-Mock cells: 390 fold
OATP1B3 [14]; [23]
  Vmax of E217βG transport mediated by OATP1B3: 15.8 ± 1.6 pmol/mg protein/min
OATP1B3 [14]; [24]
  Effect of pretreatment on OATP1B3-mediated transport of [3H]-E217βG: only slightly decreases or has no effect

## CO[C@H]1/C=C/O[C@@]2(C)Oc3c(C)c(O)c4c(O)c(c(/C=N/N5CCN(C)CC5)c(O)c4c3C2=O)NC(=O)/C(C)=C\C=C\[C@H](C)[C@H](O)[C@@H](C)[C@@H](O)[C@@H](C)[C@H](OC(C)=O)[C@@H]1C [Rifampicin]
GFP-OATP1B3 [1]; 10 μM, 1–61 min
  Plasma membrane localization of GFP-OATP1B3: primarily localized at the plasma membrane
OATP1B3 [15]; [21]
  IC50: 260 ± 30 nM
OATP1B3 [15]; [22]
  IC50: 100 ± 10 nM
OATP1B1 [2]; [21]
  IC50: 740 ± 80 nM
OATP1B1 [2]; [22]
  IC50: 240 ± 30 nM
GFP-OATP1B3 [12]; 10 μM for 0.5 and 1 h
  Effect of pretreatment on [3H]-E217βG accumulation in HEK293-GFP-OATP1B3: significantly decreased
OATP1B1 [3]
  Total protein level of OATP1B1 vs vehicle control: similar
OATP1B1 [16]
  Effect of pre-incubation on OATP1B1-mediated [3H]-pitavastatin accumulation: significantly decreased
OATP1B1 [5]; 1 – 25 μM for 0.5 h and 0.5 – 25 μM for 1 h, washed
  Effect of pre-incubation on OATP1B1-mediated [3H]-E217βG transport: significantly decreased
OATP1B1 [5]; pretreatment 10 μM, 1 h
  Change of Km of OATP1B1-mediated E217βG transport vs control: ~ 1.5 fold
  Decrease of Vmax of OATP1B1-mediated E217βG transport vs control: ~ 3.5 fold
GFP-OATP1B1 [13]; 10 μM for 0.5 and 1 h
  Effect of pretreatment on [3H]-E217βG accumulation in HEK293-GFP-OATP1B1: significantly decreased
OATP1B3 [7]
  Total protein level of OATP1B3 vs vehicle control: similar
OATP1B1 [17]
  Effect of pretreatment on OATP1B1-mediated [3H]-E1S transport: did not affect
OATP1B1 [18]
  Effect of pre-incubation on OATP1B1-mediated [3H]-E1S transport: did not significantly affect
GFP-OATP1B1 [11]; 10 μM, 1–61 min
  Plasma membrane localization of GFP-OATP1B1: primarily localized at the plasma membrane
[19]
  Maximum possible unbound concentration at the inlet to the liver (Iu,in,max): 10.7 µM
